In EP1641803B1, “THIENOPYRIMIDINE DERIVATIVES AS POTASSIUM CHANNEL INHIBITORS” (Xention Limited, priority 2003, dated 2004) one finds IC50 and inhibition data, which are given here for 29 compounds.

The IC50 is the concentration at which inhibition is half-maximal. Read a high IC50 as weaker potency. By inhibition is commonly meant how much of the control response was suppressed.

Some results are limits rather than exact numbers.

One experiment has as its target T1, human Kv1.5 (Homo sapiens, UniProt P22460).
T1 construct: expressed in transfected cells
Put plainly: Kv1.5 Rb+ Efflux Assay. Conditions: inhibition of 86Rb+ efflux through Kv1.5; cells stably transfected with human Kv1.5; 10 point concentration response curves n=2; normalised to 2.5mM 4 amino-pyridine block. The experiment is classed as cell-based. The method, then:
The pore of a potassium channel is permeable to other monovalent cations such as Rb^+ and Tl^+. Analysis of cellular efflux of potassium channel permeable ions enables potassium channel activity to be monitored directly. Cells stably transfected with cDNA for human Kv1.5 (in pEF6::VA-His-TOPO) were grown in Dulbecco's Modified Eagle media (DMEM) alpha supplemented with 10% Fetal Calf Serum (FCS), 20 µl/ml penicillin (5000U/ml) streptomycin (5000µg/ml), 10µl/ml [100x] glutamine, and blasticidin (7.5µg/ml). Cells were dispensed into 96 well cellstar TC plates and allowed to grow until a confluent monolayer was visible. On the morning of the assay run, cold media was aspirated using the TECAN plate washer, and a 50µl media spike containing 2µCi/ml (37kBq/ml) ^86Rb^+ added to each well containing cells using the Shallow-Well Matrix Platemate. Plates were placed in a incubator at 37°C for a minimum of 3 hours. Unloaded ^86Rb^+ in the "hot" media was aspirated and each well washed 4x250µl with Earls Balanced Salt Solution (EBSS) which contained 5mM KCl, 140mM NaCl, 2mM CaCl2, 1mM MgSO4, 10mM HEPES, and 5mM glucose, pH 7.4, 290-300 mOsm. These cells were then pre-incubated with 50µl of EBSS +/- test compounds for 10 minutes at room temperature. After the 10 minute incubation, 50µl of modified EBSS which contained 145mM KCl, 2mM CaCl2, 1mM MgSO4, 10mM HEPES, 5mM glucose, pH 7.4, 290-300 mOsm, was added, and the cells were incubated for a further 10 minutes at room temperature. The high KCl EBSS was used to depolarise cells to a membrane potential that would activate Kv1.5 channels. After the final incubation 80µl/100µl of the reaction from each well was transferred to equivalent wells in a Packard "Optiplate" white 96 well plate and counted in a Packard TopCount liquid scintillation counter by Cerenkov emission. Percentage inhibition ^86Rb^+ efflux through Kv1.5 was calculated by normalisation to 2.5mM 4 amino-pyridine control block of Kv1.5. Alternatively cells were loaded with ^85Rb^+ and quantified by atomic absorption spectroscopy. IC50 determinations were derived from 10 point concentration response curves n=2 using the method described above. Data was fitted as variable slope sigmoidal fit using Graphpad Prism (V3.02) software.

A further experiment concerns the target hKv1.5 (Homo sapiens, UniProt P22460). Description: Kv1.5 Autopatch Electrophysiology (whole cell patch-clamp). The experiment is classed as cell-based. Conditions: compound at 1µM, room temperature (22-24°C), held at -80mV, step to 0mV for 1000ms, total charge measured. The procedure, abridged:
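Whole-cell automated patch-clamp at 22-24°C, compounds tested at 1µM in external bather (KCl/K-gluconate, pH 7.4; KCl/EGTA pipette). Cells held at -80mV and stepped to 0mV for 1000ms every 5s; only cells with IK > 500 pA and Rseries ≤18 MΩ used. Read-out: total charge over the whole step.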

T1 sequence (P22460 whole entry): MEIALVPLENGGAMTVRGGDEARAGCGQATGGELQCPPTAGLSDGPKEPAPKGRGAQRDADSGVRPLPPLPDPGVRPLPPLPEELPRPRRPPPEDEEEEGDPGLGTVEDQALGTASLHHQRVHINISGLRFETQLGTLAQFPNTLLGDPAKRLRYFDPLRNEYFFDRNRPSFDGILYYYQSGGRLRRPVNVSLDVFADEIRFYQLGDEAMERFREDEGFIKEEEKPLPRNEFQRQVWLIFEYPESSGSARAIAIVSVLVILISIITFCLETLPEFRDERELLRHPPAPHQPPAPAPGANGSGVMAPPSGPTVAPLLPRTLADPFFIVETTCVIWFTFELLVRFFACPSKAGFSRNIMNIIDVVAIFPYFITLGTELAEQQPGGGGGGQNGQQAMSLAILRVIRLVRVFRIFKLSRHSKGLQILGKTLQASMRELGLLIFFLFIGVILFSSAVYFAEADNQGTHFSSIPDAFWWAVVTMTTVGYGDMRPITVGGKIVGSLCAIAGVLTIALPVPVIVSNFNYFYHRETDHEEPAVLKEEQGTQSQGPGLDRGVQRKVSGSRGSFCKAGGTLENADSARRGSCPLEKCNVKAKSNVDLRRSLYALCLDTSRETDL
Chain of hKv1.5 (P22460 whole entry): as above

`COC(=O)c1ccc(Oc2ncnc3scc(-c4ccc(C)cc4)c23)cc1` [Example 131, 4-(5-p-Tolyl-thieno[2,3-d]pyrimidin-4-yloxy)-benzoic acid methyl ester] registered an IC50 on human Kv1.5 above 30000 nM. In addition, at hKv1.5, at 1 µM the inhibition was 29.8%.

With `Cc1ccc(-c2csc3ncnc(NCCc4ccc5c(c4)OCCO5)c23)cc1C` [Example 132, [2-(2,3-Dihydro-benzo[1,4]dioxin-6-yl)-ethyl]-[5-(3,4-dimethyl-phenyl)-thieno[2,3-d]pyrimidin-4-yl]-amine], it took 4580 nM to reach half-maximal inhibition against human Kv1.5 (IC50). At hKv1.5, this compound had an inhibition at 1 µM of 92%.

The compound `Cc1ccc(-c2csc3ncnc(NCc4ccco4)c23)cc1C` [Example 133, [5-(3,4-Dimethyl-phenyl)-thieno[2,3-d]pyrimidin-4-yl]-furan-2-ylmethyl-amine] came in with an IC50 at human Kv1.5 of 670 nM. Besides, testing at 1 µM against hKv1.5 gave an inhibition of 77%.

Regarding `Clc1ccc(-c2csc3ncnc(NCc4ccco4)c23)cc1` [Example 135, [5-(4-Chloro-phenyl)-thieno[2,3-d]pyrimidin-4-yl]-furan-2-ylmethyl-amine], the IC50 against human Kv1.5 turned out to be 930 nM. The compound further came in with an inhibition at 1 µM against hKv1.5 of 84.8%.

Turning to `Clc1ccc(-c2csc3ncnc(NCCc4ccccc4)c23)cc1` [Example 136, [5-(4-Chloro-phenyl)-thieno[2,3-d]pyrimidin-4-yl]-phenethyl-amine], the IC50 against human Kv1.5 was found to be 16800 nM. The compound further showed an inhibition at 1 µM on hKv1.5 of 27.2%.

As to `Brc1ccc(-c2csc3ncnc(NCCc4ccc5c(c4)OCCO5)c23)cc1` [Example 137, [5-(4-Bromo-phenyl)-thieno[2,3-d]pyrimidin-4-yl]-[2-(2,3-dihydro-benzo[1,4]dioxin-6-yl)-ethyl]-amine], it took 10700 nM to reach half-maximal inhibition against human Kv1.5 (IC50). The inhibition at 1 µM against hKv1.5 is 96%.

As to `COc1ccc(-c2csc3ncnc(NCc4ccco4)c23)cc1` [Example 139, Furan-2-ylmethyl-[5-(4-methoxy-phenyl)-thieno[2,3-d]pyrimidin-4-yl]-amine], the IC50 at human Kv1.5 worked out at 1680 nM. The same compound came in with an inhibition at 1 µM against hKv1.5 of 46.9%.

In turn, `CCc1sc2ncnc(NCc3ccco3)c2c1-c1ccccc1` [Example 140, (6-Ethyl-5-phenyl-thieno[2,3-d]pyrimidin-4-yl)-furan-2-ylmethyl-amine] returned an IC50 against human Kv1.5 of 2710 nM. Besides, the inhibition at 1 µM on hKv1.5 is 74.2%.

In the case of `CCc1sc2ncnc(NCc3ccco3)c2c1-c1ccoc1` [Example 141, (6-Ethyl-5-furan-3-yl-thieno[2,3-d]pyrimidin-4-yl)-furan-2-ylmethyl-amine], the IC50 on human Kv1.5 is 2150 nM. The inhibition at 1 µM against hKv1.5 amounted to 81.3%.

`Cc1ccccc1-c1csc2ncnc(NCc3ccccn3)c12` [Example 142, Pyridin-2-ylmethyl-(5-o-tolyl-thieno[2,3-d]pyrimidin-4-yl)-amine] displayed an IC50 on human Kv1.5 of 1280 nM. This compound also displayed an inhibition at 1 µM against hKv1.5 of 49.7%.

In turn, `Cc1ccccc1-c1csc2ncnc(NCc3ccco3)c12` [Example 143, Furan-2-ylmethyl-(5-o-tolyl-thieno[2,3-d]pyrimidin-4-yl)-amine] gave an IC50 against human Kv1.5 of 1320 nM. Besides, 1 µM produced 63% inhibition against hKv1.5.

Consider `CC(C)(C)c1ccc(-c2csc3ncnc(NCc4ccccn4)c23)cc1` [Example 144, [5-(4-tert-Butyl-phenyl)-thieno[2,3-d]pyrimidin-4-yl]-pyridin-2-ylmethyl-amine], for which, on human Kv1.5, half-maximal inhibition (IC50) required 1320 nM. The same compound registered an inhibition at 1 µM against hKv1.5 of 81%.

With `CC(C)(C)c1ccc(-c2csc3ncnc(NCc4ccco4)c23)cc1` [Example 145, [5-(4-tert-Butyl-phenyl)-thieno[2,3-d]pyrimidin-4-yl]-furan-2-ylmethyl-amine], the IC50 at human Kv1.5 amounted to 3050 nM. The inhibition at 1 µM at hKv1.5 came out at 68%.

Turning to `c1ccc(CNc2ncnc3scc(C4CCCCC4)c23)nc1` [Example 146, (5-Cyclohexyl-thieno[2,3-d]pyrimidin-4-yl)-pyridin-2-ylmethyl-amine], the IC50 against human Kv1.5 was 1680 nM. Moreover, at 1 µM the inhibition against hKv1.5 was 81%.

The compound `c1coc(CNc2ncnc3scc(C4CCCCC4)c23)c1` [Example 147, (5-Cyclohexyl-thieno[2,3-d]pyrimidin-4-yl)-furan-2-ylmethyl-amine] yielded an IC50 against human Kv1.5 of 2520 nM. Also, testing at 1 µM on hKv1.5 gave an inhibition of 71%.

As to `CC(C)c1nc(NCc2ccccn2)c2c(-c3ccccc3)csc2n1` [Example 148, (2-Isopropyl-5-phenyl-thieno[2,3-d]pyrimidin-4-yl)-pyridin-2-ylmethyl-amine], at human Kv1.5, the IC50 worked out at 1510 nM. This compound also showed an inhibition at 1 µM against hKv1.5 of 88%.

`Cc1nc(NCc2ccco2)c2c(-c3ccccc3)csc2n1` [Example 150, Furan-2-ylmethyl-(2-methyl-5-phenyl-thieno[2,3-d]pyrimidin-4-yl)-amine] yielded an IC50 against human Kv1.5 of 140 nM. 1 µM produced 96.8% inhibition against hKv1.5.

With `FC(F)(F)c1nc(NCc2ccccn2)c2c(-c3ccccc3)csc2n1` [Example 151, (5-Phenyl-2-trifluoromethyl-thieno[2,3-d]pyrimidin-4-yl)-pyridin-2-ylmethyl-amine], the IC50 against human Kv1.5 is 1680 nM. Moreover, at hKv1.5, the inhibition at 1 µM is 95%.

For `CCc1nc(NCc2ccccn2)c2c(-c3ccccc3)csc2n1` [Example 152, (2-Ethyl-5-phenyl-thieno[2,3-d]pyrimidin-4-yl)-pyridin-2-ylmethyl-amine], at human Kv1.5, the IC50 is 390 nM. This compound also had an inhibition at 1 µM against hKv1.5 of 98.7%.

On human Kv1.5, `CCc1nc(NCc2ccco2)c2c(-c3ccccc3)csc2n1` [Example 153, (2-Ethyl-5-phenyl-thieno[2,3-d]pyrimidin-4-yl)-furan-2-ylmethyl-amine] had an IC50 of 3630 nM. On hKv1.5, this compound displayed an inhibition at 1 µM of 96.8%.

For the compound `Cc1nc(NCc2ccccn2)c2c(-c3ccc(F)cc3)csc2n1` [Example 155, [5-(4-Fluorophenyl)-2-methyl-thieno[2,3-d]pyrimidin-4-yl]-pyridin-2-ylmethyl-amine], on human Kv1.5, half-maximal inhibition (IC50) was put at 1620 nM. The compound also gave an inhibition at 1 µM against hKv1.5 of 92.2%.

For the compound `Cc1sc2ncnc(NCc3ccccn3)c2c1-c1ccccc1` [Example 157, (6-Methyl-5-phenyl-thieno[2,3-d]pyrimidin-4-yl)-pyridin-2-ylmethyl-amine], inhibition at human Kv1.5 was half-maximal at 240 nM (IC50). The compound further came in with an inhibition at 1 µM against hKv1.5 of 88%.

At human Kv1.5, `c1ccc(-c2csc3ncnc(NC4CCCc5ccccc54)c23)cc1` (stereo not shown) [Example 158, (5-Phenyl-thieno[2,3-d]pyrimidin-4-yl)-(1,2,3,4-tetrahydro-naphthalen-1-yl)-amine] showed an IC50 of 17700 nM. This compound also showed an inhibition at 1 µM against hKv1.5 of 83.4%.

Regarding `Cc1sc2ncnc(N3CCCCC3)c2c1-c1ccccc1` [Example 159, 6-Methyl-5-phenyl-4-piperidin-1-yl-thieno[2,3-d]pyrimidine], the midpoint of inhibition on human Kv1.5, the IC50, lay at 13400 nM. On hKv1.5, 1 µM produced 83% inhibition.

With `c1ccc(-c2csc3ncnc(NCc4csc(-c5cccs5)n4)c23)cc1` [Example 161, (5-Phenyl-thieno[2,3-d]pyrimidin-4-yl)-(2-thiophen-2-yl-thiazol-4-ylmethyl)-amine], the IC50 against human Kv1.5 was determined as 25500 nM. This compound also showed an inhibition at 1 µM at hKv1.5 of 79.4%.

Turning to `c1ccc(-c2nc(CNc3ncnc4scc(-c5ccccc5)c34)cs2)cc1` [Example 162, (2-Phenyl-thiazol-4-ylmethyl)-(5-phenyl-thieno[2,3-d]pyrimidin-4-yl)-amine], the IC50 on human Kv1.5 is 19700 nM. At 1 µM the inhibition against hKv1.5 was 74.5%.

The compound `c1ccc(CCNc2ncnc3scc(-c4cccs4)c23)cc1` [Example 163, Phenethyl-(5-thiophen-2-yl-thieno[2,3-d]pyrimidin-4-yl)-amine] came in with a half-maximal inhibitory concentration (IC50) at human Kv1.5 of 14300 nM. Also, the inhibition at 1 µM against hKv1.5 is 70.8%.

`Brc1sc2ncnc(NCc3ccccn3)c2c1-c1ccccc1` [Example 164, (6-Bromo-5-phenyl-thieno[2,3-d]pyrimidin-4-yl)-pyridin-2-ylmethyl-amine]: the IC50 at human Kv1.5 came out at 530 nM. This compound returned an inhibition at 1 µM at hKv1.5 of 92.8%.

On to `Brc1sc2ncnc(NCc3ccco3)c2c1-c1ccccc1` [Example 165, (6-Bromo-5-phenyl-thieno[2,3-d]pyrimidin-4-yl)-furan-2-ylmethyl-amine], for which the IC50 at human Kv1.5 amounted to 1600 nM. The compound further returned an inhibition at 1 µM on hKv1.5 of 91%.
